Patent publication US20240000075A1, “FUNGICIDAL ARYL AMIDINES” (CORTEVA AGRISCIENCE LLC, priority 2020, published 2024)
Read-outs that look alike come from different tables or passages of the source.

What was measured:
Puccinia triticina = assay: Wheat brown rust, whole-plant fungicidal activity (PUCCRT); assay type: in vivo, Puccinia triticina on wheat plants (variety 'Yuma'); conditions: 24 h, 1DP (1 day protectant), read-out: % Disease Control Rating PUCCRT
Protocol: Technical grades of materials were dissolved in acetone, which were then mixed with nine volumes of water (H2O) containing 110 ppm Triton X-100. The fungicide solutions were applied onto wheat seedlings using an automated booth sprayer to run-off. All sprayed plants were allowed to air dry prior to further handling. All fungicides were evaluated using the aforementioned method for their activity vs. all target diseases, unless stated otherwise.
Example B: Evaluation of Fungicidal Activity: Wheat Brown Rust (Puccinia triticina; Synonym: Puccinia recondita f sp. tritici; Bayer Code PUCCRT)
Wheat plants (variety ‘Yuma’) were grown from seed in a greenhouse in soil-less potting mix until the first leaf was fully emerged, with 7-10 seedlings per pot. These plants were inoculated with an aqueous spore suspension of Puccinia triticina after fungicide treatments. After inoculation, the plants were kept in a dark dew room with 100% relative humidity overnight to permit spores to germinate and infect the leaf. The plants were then transferred to a greenhouse for disease to develop. Fungicide formulation, application and disease assessment followed the procedures as described in Example A.

Phakopsora pachyrhizi = assay: Asian soybean rust, whole-plant fungicidal activity (PHAKPA); assay type: in vivo; conditions: read-out: % Disease Control Rating PHAKPA
Protocol: Example C: Evaluation of Fungicidal Activity: Asian Soybean Rust (Phakopsora pachyrhizi; Bayer Code […]) Technical grades of materials were dissolved in acetone, which were then mixed with nine volumes of H2O containing 0.011% Tween-20. The fungicide solutions were applied onto soybean seedlings using an automated booth sprayer to run-off. All sprayed plants were allowed to air dry prior to further handling. Soybean plants (variety 'Williams 82') were grown in soil-less potting mix, with one plant per pot. Ten-day-old seedlings were used for testing. Plants were inoculated as described in Example A. Plants were incubated for 24 h in a dark dew room with 100% relative humidity then transferred to a growth room for disease to develop. Fungicide formulation and application were made as described in Example A. When disease symptoms were fully expressed, disease severity was assessed on the sprayed leaves on a scale of 0 to 100 percent. Percent disease control was calculated using the ratio of disease severity on treated plants relative to untreated plants.

Rhynchosporium commune = assay: Leaf blotch of barley, whole-plant fungicidal activity (RHYNSE); assay type: in vivo; conditions: 24 h, 1DP (1 day protectant), read-out: % Disease Control Rating RHYNSE
Protocol: Technical grades of materials were dissolved in acetone, which were then mixed with nine volumes of water (H2O) containing 110 ppm Triton X-100. The fungicide solutions were applied onto wheat seedlings using an automated booth sprayer to run-off. All sprayed plants were allowed to air dry prior to further handling. All fungicides were evaluated using the aforementioned method for their activity vs. all target diseases, unless stated otherwise. Example D: Evaluation of Fungicidal Activity: Leaf Blotch of Barley (Rhynchosporium commune; Bayer Code […]) Barley plants (variety 'Harrington') were grown from seed in a greenhouse in soil-less potting mix until the first leaf was fully emerged, with 7-10 seedlings per pot. These plants were inoculated with an aqueous spore suspension of Rhynchosporium commune after fungicide treatments. After inoculation, the plants were kept in a dark dew room with 100% relative humidity for two days to permit spores to germinate and infect the leaf. The plants were then transferred to a greenhouse for disease to develop. Fungicide formulation and application were made as described in Example A. Disease assessment was conducted as described in Example A.

Zymoseptoria tritici = assay: Septoria leaf blotch of wheat, whole-plant fungicidal activity (SEPTTR); assay type: in vivo, Zymoseptoria tritici on wheat plants (variety 'Yuma'); conditions: read-out: % Disease Control Rating SEPTTR
Protocol: Example A: Evaluation of Fungicidal Activity: Septoria Leaf Blotch of Wheat (Zymoseptoria tritici; Bayer Code […]) Technical grades of materials were dissolved in acetone, which were then mixed with nine volumes of water (H2O) containing 110 ppm Triton X-100. The fungicide solutions were applied onto wheat seedlings using an automated booth sprayer to run-off. All sprayed plants were allowed to air dry prior to further handling. All fungicides were evaluated using the aforementioned method for their activity vs. all target diseases, unless stated otherwise. Wheat plants (variety 'Yuma') were grown from seed in a greenhouse in soil-less potting mix until the first leaf was fully emerged, with 7-10 seedlings per pot. These plants were inoculated with an aqueous spore suspension of Zymoseptoria tritici either 3 days prior to fungicide treatment (3 day curative; 3DC) or 1 day after fungicide treatment (1 day protectant; 1DP). After inoculation the plants were kept in 100% relative humidity for three days to permit spores to germinate and infect the leaf. The plants were then transferred to a greenhouse for disease to develop. When disease symptoms were fully expressed on the 1st leaves of untreated plants, infection levels were assessed on a scale of 0 to 100 percent disease severity. Percent disease control was calculated using the ratio of disease severity on treated plants relative to untreated plants.

Row | Compound | pest or weed control at 200 ppm (Puccinia triticina) [%] | pest or weed control at 200 ppm (Phakopsora pachyrhizi; 24 h, 1DP (1 day protectant)) [%] | pest or weed control at 200 ppm (Phakopsora pachyrhizi; 72 h, 3DC (3 day curative)) [%] | pest or weed control at 200 ppm (Rhynchosporium commune) [%] | pest or weed control at 200 ppm (Zymoseptoria tritici; 24 h, 1DP (1 day protectant)) [%] | pest or weed control at 200 ppm (Zymoseptoria tritici; 72 h, 3DC (3 day curative)) [%]
1 | CCc1ccc(CC(=O)c2cc(C)c(/N=C/N(C)CC)cc2C)cc1 [Compound 6] | > 85 | > 85 | > 85 | > 85 | > 85 | 20 to 50
2 | CCN(C)/C=N/c1ccc(C(=O)Cc2ccc(C)cc2F)c(C)c1C [Compound 11] | < 20 | > 85 | > 85 | < 20 | < 20 | < 20
3 | CCN(C)/C=N/c1ccc(C(=O)Cc2ccc(C)cc2)c(C)c1C [Compound 12] | < 20 | 50 to 85 | 50 to 85 | < 20 | < 20 | < 20
4 | CCN(C)/C=N/c1ccc(C(=O)Cc2ccccc2)c(C)c1C [Compound 16] | < 20 | 50 to 85 | > 85 | < 20 | < 20 | < 20
5 | CCN(C)/C=N/c1cc(C)c(C(=O)C2CCCC2)cc1C [Compound 17] | > 85 | > 85 | > 85 | > 85 | 50 to 85 | < 20
6 | CCN(C)/C=N/c1cc(C)c(C(=O)Cc2ccccc2F)cc1C [Compound 18] | 50 to 85 | > 85 | > 85 | > 85 | 50 to 85 | < 20
7 | CCN(C)/C=N/c1cc(C)c(C(=O)CCC(F)(F)F)cc1C [Compound 19] | > 85 | > 85 | > 85 | 20 to 50 | < 20 | 20 to 50
8 | CCN(C)/C=N/c1cc(C)c(C(=O)Cc2ccc(F)cc2F)cc1C [Compound 20] | > 85 | > 85 | > 85 | > 85 | < 20 | < 20
9 | CCN(C)/C=N/c1cc(C)c(C(=O)CC(C)(C)C)cc1C [Compound 21] | > 85 | > 85 | > 85 | > 85 | 50 to 85 | < 20
10 | CCN(C)/C=N/c1cc(C)c(C(=O)CCC(C)C)cc1C [Compound 22] | > 85 | > 85 | > 85 | > 85 | < 20 | < 20
11 | CCN(C)/C=N/c1cc(C)c(C(=O)Cc2c(F)cc(F)cc2F)cc1C [Compound 23] | > 85 | > 85 | > 85 | > 85 | 20 to 50 | < 20
12 | CCN(C)/C=N/c1cc(C)c(C(=O)Cc2cccc(C(=O)OC)c2)cc1C [Compound 24] | > 85 | < 20 | < 20 | < 20 | < 20 | < 20
13 | CCN(C)/C=N/c1cc(C)c(C(=O)C2CCC2)cc1C [Compound 25] | > 85 | > 85 | > 85 | > 85 | 20 to 50 | < 20
14 | CCN(C)/C=N/c1cc(C)c(C(=O)C2CCCCC2)cc1C [Compound 26] | > 85 | > 85 | > 85 | > 85 | > 85 | 20 to 50
15 | C=CCN(C)/C=N/c1cc(C)c(C(=O)CC2CCCCC2)cc1C [Compound 39] | – | 50 to 85 | > 85 | – | – | –
16 | Cc1cc(C(=O)CC2CCCCC2)c(C)cc1/N=C/N(C)C1CCCCC1 [Compound 40] | – | < 20 | < 20 | – | – | –
17 | Cc1cc(C(=O)CC2CCCCC2)c(C)cc1/N=C/N1CCCC1 [Compound 41] | – | > 85 | > 85 | – | – | –
18 | Cc1cc(C(=O)CC2CCCCC2)c(C)cc1/N=C/N1CCCCC1 [Compound 42] | – | > 85 | > 85 | – | – | –
19 | Cc1cc(C(=O)CC2CCCCC2)c(C)cc1/N=C/N1CCOCC1 [Compound 43] | – | < 20 | < 20 | – | – | –
20 | Cc1cc(C(=O)CC2CCCCC2)c(C)cc1/N=C/N(C)c1ccccc1 [Compound 44] | – | < 20 | < 20 | – | – | –
21 | CCN(C)/C=N/c1ccc(C(=O)C2CCC2)cc1C [Compound 95] | > 85 | 20 to 50 | 20 to 50 | – | – | –
22 | CCN(C)/C=N/c1ccc(C(=O)CC2CCCC2)cc1 [Compound 97] | 50 to 85 | 50 to 85 | 50 to 85 | – | – | –
23 | CCN(C)/C=N/c1cc(C(F)(F)F)c(C(=O)C2CCC2)cc1C [Compound 98] | < 20 | 20 to 50 | 20 to 50 | – | – | –
24 | CCN(C)/C=N/c1cc(OC)c(C(=O)C2CCC2)cc1C [Compound 99] | > 85 | > 85 | > 85 | – | – | –
25 | CCN(C)/C=N/c1cc(C)c(C(=O)C2CCC2)cc1C(F)(F)F [Compound 100] | > 85 | > 85 | > 85 | – | – | –
26 | CCN(C)/C=N/c1ccc(C(=O)C2CCC2)c(C)c1 [Compound 101] | < 20 | < 20 | < 20 | – | – | –
27 | CCN(C)/C=N/c1cc(C)c(C(=O)C2CCC2)cc1F [Compound 102] | > 85 | 50 to 85 | > 85 | – | – | –
28 | CCN(C)/C=N/c1cc(C)c(C(=O)C2CCC2)cc1OC [Compound 103] | 50 to 85 | 20 to 50 | > 85 | – | – | –
29 | CCN(C)/C=N/c1ccc(C(=O)Cc2c(F)cc(F)cc2F)cc1C [Compound 104] | > 85 | 50 to 85 | > 85 | – | – | –
